Values quoted from earlier work, collected in publication PMC10017685 (Nature Communications, 2023).
Read-outs that look alike come from different tables or passages of the source.

Tested on: human erythrocytes
Design: method as in DBAASP
Conditions: cited from earlier work
[1] = toxicity class label 1 or 0, meaning of the labels not given, DBAASP HC50 data, human erythrocytes, ref DBAASP

Sequence	Class (dedicated toxicity dataset used for toxicity classifier evaluation) [1]	Class (dedicated toxicity dataset used for toxicity classifier evaluation)
GLLKKIKTLL [DBAASP_3141]	0	–
GLLKKIKWLL [DBAASP_7430]	–	0
GLLKKLLKIAAKVGKKLL [DBAASP_4928]	1	–
GLLKKLLKKLLKKL [DBAASP_13973]	–	1
GLLKLIKTLL [DBAASP_3136]	1	–
GLLKPLLKIAAKVGSNLL [DBAASP_2279]	0	–
GLLKRIATLL [DBAASP_3123]	0	–
GLLKRIKALL [DBAASP_3124]	0	–
GLLKRIKFLL [DBAASP_3145]	0	–
GLLKRIKILL [DBAASP_3144]	0	–
GLLKRIKKLL [DBAASP_3148]	0	–
GLLKRIKKLLKKIKKLL [DBAASP_8595]	1	–
GLLKRIKLLL [DBAASP_3143]	0	–
GLLKRIKNLL [DBAASP_3146]	0	–
GLLKRIKSLL [DBAASP_8600]	0	–
GLLKRIKT [DBAASP_13874]	0	–
GLLKRIKTL [DBAASP_13873]	1	–
GLLKRIKTLL [DBAASP_3116]	0	–
GLLKRIKTLL [DBAASP_7447]	1	–
GLLKRIKVLL [DBAASP_3142]	0	–
GLLKRIKWLL [DBAASP_3147]	0	–
GLLKVIKTLL [DBAASP_3135]	0	–
GLLKVIKVLL [DBAASP_3150]	1	–
GLLKWIKTLL [DBAASP_3140]	1	–
GLLRASSKWGRKYYVDLAGCAKA [DBAASP_12529]	0	–

Sequence	Class (dedicated toxicity dataset used for toxicity classifier evaluation) [1]	Class (dedicated toxicity dataset used for toxicity classifier evaluation)
GLLRASSVWGRKYYVDLAGCAKA [DBAASP_1639]	0	–
GLLSNVAGLLKQFAKGGVNAVLNPK [DBAASP_5717]	0	–
GLLSRIKTLL [DBAASP_8598]	0	–
GLLTRIKTLL [DBAASP_8596]	0	–
GLMKRIKTML [DBAASP_8625]	0	–
GLNAFKKVFQGIHEAIKLINNHVQ [DBAASP_6933]	0	–
GLNALKKFFQGIHEAIKLINNHVQ [DBAASP_6934]	0	–
GLNALKKVFKGIHEAIKLINNHVQ [DBAASP_6924]	0	–
GLNALKKVFQGFHEAIKLINNHVQ [DBAASP_6935]	0	–
GLNALKKVFQGIHEAFKLINNHVQ [DBAASP_6936]	0	–
GLNALKKVFQGIHEAIKLFNNHVQ [DBAASP_6937]	0	–
GLNALKKVFQGIHEAIKLINKHVQ [DBAASP_6926]	0	–
GLNALKKVFQGIHEAIKLINNHVK [DBAASP_6927]	0	–
GLNALKKVFQGIHEAIKLINNHVQ [DBAASP_3355]	0	–
GLNALKKVFQGIHKAIKLINNHVQ [DBAASP_6925]	0	–
GLVGTLLGHIGKAILG [DBAASP_5369]	0	–
GLVGTLLGHIGKAILS [DBAASP_5370]	0	–
GLWSKIKDAAKTAGKAALGFVNEMV [DBAASP_14233]	0	–
GLWSKIKKAAKTAGKAALGFVNKMV [DBAASP_14234]	0	–
GMATKAGTAFGKAAKAIIGAAL [DBAASP_5720]	0	–
GMATKAGTALGKVAKAVIGAAL [DBAASP_2285]	0	–
GMLKRIKTLL [DBAASP_8628]	0	–
GMLKRIKTLM [DBAASP_8626]	0	–
GMMKRIKTMM [DBAASP_8621]	0	–
GRFKRFRKKFKKLFKKLS [DBAASP_628]	0	–

Sequence	Class (dedicated toxicity dataset used for toxicity classifier evaluation) [1]	Class (dedicated toxicity dataset used for toxicity classifier evaluation)
GRKKRRQRRRGALWKSLLKNVGKA [DBAASP_11807]	–	0
GVFLDALKKFAKGGMNAVLNPK [DBAASP_3156]	0	–
GVGKFLHSAKKFGQALASEIMKS [DBAASP_3769]	0	–
GVGKFLHSAKKFGQALVSEIMKS [DBAASP_3770]	0	–
GVLKRIKTLV [DBAASP_8624]	0	–
GVSKILHSAGKFGKAFLGEIMKS [DBAASP_3776]	0	–
GVVDILKGAAKDIAGHLASKVMNKL [DBAASP_4358]	0	–
GVVDILKGAAKDLAGHLATKVMNKL [DBAASP_4357]	0	–
GVVKRIKTVV [DBAASP_8620]	0	–
GVWSTILGGLKKFAKGGLDAIVNPK [DBAASP_5716]	0	–
GVWSTVLGGLKKFAKGGLEAIVNPK [DBAASP_3155]	0	–
GWASSIGSILGKFAKGGAQAFLQPK [DBAASP_5714]	0	–
GWGSFFKKAAHVGKHVGKAALTHYL [DBAASP_1004]	0	–
GWGSIFKHGRHAAKHIGHAAVNHYL [DBAASP_1420]	0	–
GWKDLLKGAAKALVKTVF [DBAASP_11233]	0	–
GWKKWFNRAKKVGKTVGGLAVDHYL [DBAASP_996]	0	–
GWKKWFTKGERLSQRHFA [DBAASP_1000]	0	–
GWKKWLRKGAKHLGQAAIK [DBAASP_1434]	0	–
GWKKWLRKGAKHLGQAAIKGLAS [DBAASP_1435]	0	–
GWKSVFRKAKKVGKTVGGLALDHYL [DBAASP_995]	0	–
GWLDVAKKIGKAAFNVAKNFI [DBAASP_7670]	1	–
GWLDVAKKIGKAAFNVAKNFL [DBAASP_10137]	0	–
GWLDVAKKKGKAAFNVAKNFI [DBAASP_7674]	0	–
GWLPTFGKILRKAMQLGPKLIQPI [DBAASP_5715]	0	–
GWRTLLKKAEVKTVGKLALKHYL [DBAASP_1409]	0	–

Sequence	Class (dedicated toxicity dataset used for toxicity classifier evaluation) [1]	Class (dedicated toxicity dataset used for toxicity classifier evaluation)
HFKGTLVNLAKKIL [DBAASP_5016]	0	–
HFLGKLVNLAKKIL [DBAASP_5018]	0	–
HFLGTKVNLAKKIL [DBAASP_5020]	0	–
HFLGTLKNLAKKIL [DBAASP_5019]	0	–
HFLGTLVKLAKKIL [DBAASP_5021]	0	–
HFLGTLVNKAKKIL [DBAASP_5023]	0	–
HFLGTLVNLAKKIK [DBAASP_5026]	0	–
HFLGTLVNLAKKKL [DBAASP_5025]	0	–
HFLGTLVNLKKKIL [DBAASP_5024]	0	–
HFLKTLVNLAKKIL [DBAASP_5017]	0	–
HKLGTLVNLAKKIL [DBAASP_5015]	0	–
HWRRFWHR [DBAASP_12822]	0	–
IAGKIAKIAGKIAKIAGKIA [DBAASP_14993]	–	1
IAGKIAKIAGKIAKIAGKIAK [DBAASP_14998]	–	0
IAKIAGKIAKIAGKIA [DBAASP_14991]	0	–
IAKIAGKIAKIAGKIAK [DBAASP_14997]	–	0
IAKIAGKIAKIAGKIAKIAGKIA [DBAASP_14994]	1	–
IAKIAGKIAKIAGKIAKIAGKIAK [DBAASP_14999]	–	1
IFGAILPLALGALKNLIK [DBAASP_3892]	1	–
IFGAIWPLALGALKNLIK [DBAASP_9405]	1	–
IIKKIIKKIIKK [DBAASP_13883]	0	–
IIKKIIKKIIKKI [DBAASP_13881]	0	–
IKKIIKKI [DBAASP_10843]	0	–
IKKILSKIKKLL [DBAASP_10745]	0	–
IKKILSKIKKLLK [DBAASP_7154]	0	–
